Structures can show the parent of a compound that is named as a salt. Where two headings read alike, the source gives them in different places.
What was measured:
Assay type in all cases: biochemical
[1] = biological target: human α-thrombin (Homo sapiens (Human), UniProt P00734); test: Enzymatic assay for thrombin (Boc-VPR-AMC substrate)
[2] = tested on: Lectin Pathway; test: Lectin pathway activation assay in human serum (mannan-coated ELISA, C3c detection); conditions: 1% human serum
[3] = biological target: mMASP-2 (Mus musculus (Mouse), UniProt Q91WP0); test: Enzymatic inhibition of mMASP-2; conditions: read-out: mMASP-2 Ki
[4] = biological target: MASP-2 (CCP1-CCP2-SP) (Homo sapiens (Human), UniProt O00187); test: biochemical
[5] = MASP-2 inhibition versus thrombin
[6] = selectivity for MASP-2 inhibition versus thrombin

Sequence of mMASP-2 (Q91WP0 20-685): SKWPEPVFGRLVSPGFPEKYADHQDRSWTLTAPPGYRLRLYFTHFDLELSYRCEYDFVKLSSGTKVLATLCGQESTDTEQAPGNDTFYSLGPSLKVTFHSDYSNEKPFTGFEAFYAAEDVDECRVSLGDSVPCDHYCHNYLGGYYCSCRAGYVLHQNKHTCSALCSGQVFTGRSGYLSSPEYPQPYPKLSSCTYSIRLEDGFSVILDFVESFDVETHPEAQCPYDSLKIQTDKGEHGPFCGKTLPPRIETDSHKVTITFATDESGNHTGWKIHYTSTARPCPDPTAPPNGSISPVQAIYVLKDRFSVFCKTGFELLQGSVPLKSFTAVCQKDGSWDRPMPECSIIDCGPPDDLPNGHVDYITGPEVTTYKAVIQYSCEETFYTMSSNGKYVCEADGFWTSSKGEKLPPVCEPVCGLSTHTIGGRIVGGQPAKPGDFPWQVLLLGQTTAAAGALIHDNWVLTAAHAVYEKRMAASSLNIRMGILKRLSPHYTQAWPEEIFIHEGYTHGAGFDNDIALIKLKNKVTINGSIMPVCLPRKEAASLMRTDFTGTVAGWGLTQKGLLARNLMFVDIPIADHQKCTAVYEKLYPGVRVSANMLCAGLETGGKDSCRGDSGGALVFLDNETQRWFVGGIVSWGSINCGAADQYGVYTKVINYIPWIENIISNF
Sequence of MASP-2 (CCP1-CCP2-SP) (O00187 445-686): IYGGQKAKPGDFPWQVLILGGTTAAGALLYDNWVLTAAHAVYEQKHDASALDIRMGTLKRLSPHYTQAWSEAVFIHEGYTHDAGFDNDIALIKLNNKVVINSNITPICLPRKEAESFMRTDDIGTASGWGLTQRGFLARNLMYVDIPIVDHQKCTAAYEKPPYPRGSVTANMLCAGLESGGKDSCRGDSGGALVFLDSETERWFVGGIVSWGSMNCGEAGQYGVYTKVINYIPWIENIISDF

## Cc1nc(N)ccc1CNC(=O)C(C)NC(=O)[C@H]1C[C@H](c2cccc(-c3ccccc3)c2)CN1 (stereo in doubt) [compound 1360, (2R,4R)-4-([1,1′-Biphenyl]-3-yl)-N—((R)-1-(((6-amino-2-methylpyridin-3-yl)methyl)amino)-1-oxopropan-2-yl)pyrrolidine-2-carboxamide Di-trifluoroacetate salt]
[1]; read-out: Thrombin Ki
  Ki: > 25 µM
[2]
  IC50: 50 to 500 nM
[3]
  Ki: < 500 nM

## N=C(N)c1ccc(CNC(=O)[C@@H]2CCN2C(=O)[C@H](N)c2ccccc2)cc1 [compound 1011, (S)-1-((R)-2-amino-2-phenylacetyl)-N-(4-carbamimidoylbenzyl)azetidine-2-carboxamide]
[1]; read-out: Thrombin Ki
  Ki: < 0.5 µM
[4]; [5]
  MASP-2 vs. thrombin selectivity: −− (less than 1.0-fold)
[4]; read-out: MASP-2 Ki
  Ki: < 500 nM
[2]
  IC50: 500 to 5000 nM

## C[C@H](NC(=O)[C@H](N)CCc1ccccc1)C(=O)NCCc1ccc(N)nc1 [compound 1015, (R)-2-Amino-N—((S)-1-((2-(6-aminopyridin-3-yl)ethyl)amino)-1-oxopropan-2-yl)-4-phenylbutanamide Dihydrochloride]
[1]; read-out: Thrombin Ki
  Ki: > 25 µM
[2]
  IC50: 5000 to 50000 nM
[3]
  Ki: < 25000 nM

## C[C@H](NC(=O)[C@H](N)CCc1ccccc1)C(=O)NCCc1ccnc(N)c1 [compound 1016, (R)-2-Amino-N—((S)-1-((2-(2-aminopyridin-4-yl)ethyl)amino)-1-oxopropan-2-yl)-4-phenylbutanamide Dihydrochloride]
[1]; read-out: Thrombin Ki
  Ki: > 25 µM
[2]
  IC50: 5000 to 50000 nM
[3]
  Ki: < 25000 nM

## C[C@H](NC(=O)[C@H](N)C1Cc2ccccc2C1)C(=O)NCc1ccc(C(=N)N)cc1 [compound 1035]
[1]; read-out: Thrombin Ki
  Ki: < 0.5 µM
[4]; [5]
  MASP-2 vs. thrombin selectivity: ** (5.0 to 25-fold)
[4]; read-out: MASP-2 Ki
  Ki: < 500 nM
[2]
  IC50: < 50 nM

## Nc1nccc2cc(CNC(=O)[C@@H]3CCN3C(=O)[C@H](N)C3CCCCC3)ccc12 [compound 1041, (S)-1-((R)-2-Amino-2-cyclohexylacetyl)-N-((1-aminoisoquinolin-6-yl)methyl)azetidine-2-carboxamide dihydrochloride]
[1]; read-out: Thrombin Ki
  Ki: < 0.5 µM
[2]
  IC50: 5000 to 50000 nM

## C[C@H](NC(=O)[C@H](N)CCCc1ccccc1)C(=O)NCc1ccc(C(=N)N)cc1 [compound 1042]
[1]; read-out: Thrombin Ki
  Ki: < 0.5 µM
[4]; [5]
  MASP-2 vs. thrombin selectivity: ** (5.0 to 25-fold)
[4]; read-out: MASP-2 Ki
  Ki: < 500 nM
[2]
  IC50: < 50 nM

## N=C(N)c1ccc(CNC(=O)[C@@H]2CCCCN2C(=O)[C@H](N)C2CCCCC2)cc1 [compound 1051]
[1]; read-out: Thrombin Ki
  Ki: < 0.5 µM
[2]
  IC50: 5000 to 50000 nM

## CC(C)(C)[C@@H](NCC(=O)O)C(=O)N1CC[C@H]1C(=O)NCc1ccc(C(=N)N)cc1 [compound 1055]
[1]; read-out: Thrombin Ki
  Ki: < 0.5 µM
[2]
  IC50: 5000 to 50000 nM

## N=C(N)c1ccc(CNC(=O)[C@@H]2CCN2C(=O)[C@H](N)CCCc2ccccc2)cc1 [compound 1069]
[1]; read-out: Thrombin Ki
  Ki: < 0.5 µM
[4]; [5]
  MASP-2 vs. thrombin selectivity: −− (less than 1.0-fold)
[4]; read-out: MASP-2 Ki
  Ki: < 500 nM
[2]
  IC50: 500 to 5000 nM

## N=C(N)c1ccc(CNC(=O)[C@@H]2CCN2C(=O)[C@H](NCC(=O)O)C2CCCC2)cc1 [compound 1083]
[1]; read-out: Thrombin Ki
  Ki: < 0.5 µM
[4]; [5]
  MASP-2 vs. thrombin selectivity: −− (less than 1.0-fold)
[4]; read-out: MASP-2 Ki
  Ki: < 500 nM
[2]
  IC50: 5000 to 50000 nM

## C[C@H](NC(=O)[C@H](N)C1Cc2ccccc2C1)C(=O)NCc1ccc2c(N)nccc2c1 [compound 1088, (S)-2-((R)-2-Amino-2-(2,3-dihydro-1H-inden-2-yl)acetamido)-N-((1-aminoisoquinolin-6-yl)methyl)propanamide Dihydrochloride]
[4]; read-out: MASP-2 Ki
  Ki: < 500 nM
[2]
  IC50: 50 to 500 nM
[3]
  Ki: < 500 nM

## C[C@H](NC(=O)[C@H](N)C1Cc2ccccc2C1)C(=O)NCc1ccc2nc(N)ccc2c1 [compound 1091]
[1]; read-out: Thrombin Ki
  Ki: > 25 µM
[2]
  IC50: 5000 to 50000 nM
[3]
  Ki: < 500 nM

## C[C@H](NC(=O)[C@H](NCC(=O)O)C1CCCCC1)C(=O)NCc1ccc(C(=N)N)cc1 [compound 1094]
[1]; read-out: Thrombin Ki
  Ki: < 0.5 µM
[4]; [5]
  MASP-2 vs. thrombin selectivity: −− (less than 1.0-fold)
[4]; read-out: MASP-2 Ki
  Ki: < 500 nM
[2]
  IC50: 5000 to 50000 nM

## C[C@H](NC(=O)[C@H](N)Cc1csc2ccccc12)C(=O)NCc1ccc(C(=N)N)cc1 [compound 1099]
[1]; read-out: Thrombin Ki
  Ki: < 0.5 µM
[4]; [5]
  MASP-2 vs. thrombin selectivity: −− (less than 1.0-fold)
[4]; read-out: MASP-2 Ki
  Ki: < 500 nM
[2]
  IC50: 50 to 500 nM

## N=C(N)c1ccc(CNC(=O)[C@@H]2CCN2C(=O)[C@@H](Cc2ccccc2)NCC(=O)O)cc1 [compound 1109]
[1]; read-out: Thrombin Ki
  Ki: < 0.5 µM
[2]
  IC50: > 50000 nM

## N=C(N)c1ccc(CNC(=O)[C@@H]2CCN2C(=O)[C@@H](CC2CCCCC2)NCC(=O)O)cc1 [compound 1114]
[1]; read-out: Thrombin Ki
  Ki: < 0.5 µM
[4]; [5]
  MASP-2 vs. thrombin selectivity: −− (less than 1.0-fold)
[4]; read-out: MASP-2 Ki
  Ki: < 500 nM
[2]
  IC50: 500 to 5000 nM

## N=C(N)c1ccc(CNC(=O)[C@@H]2CCCN2C(=O)[C@H](NCC(=O)O)C2CCCCC2)cc1 [compound 1115]
[1]; read-out: Thrombin Ki
  Ki: < 0.5 µM
[4]; [5]
  MASP-2 vs. thrombin selectivity: −− (less than 1.0-fold)
[4]; read-out: MASP-2 Ki
  Ki: < 500 nM
[2]
  IC50: 500 to 5000 nM

## N=C(N)c1ccc(CNC(=O)[C@@H]2CCN2C(=O)[C@H](NCC(=O)O)C2CCCCC2)cc1O [compound 1116, ((R)-2-((S)-2-((4-Carbamimidoyl-3-hydroxybenzyl)carbamoyl)azetidin-1-yl)-1-cyclohexyl-2-oxoethyl)glycine]
[1]; read-out: Thrombin Ki
  Ki: < 0.5 µM
[2]
  IC50: 5000 to 50000 nM

## N=C(N)c1ccc(CNC(=O)[C@@H]2CCCCN2C(=O)[C@H](NCC(=O)O)C2CCCCC2)cc1 [compound 1127]
[1]; read-out: Thrombin Ki
  Ki: < 0.5 µM
[2]
  IC50: 5000 to 50000 nM

## N=C(N)c1ccc(CNC(=O)[C@@H]2CCN2C(=O)[C@H](NCC(=O)O)C2Cc3ccccc3C2)cc1 [compound 1129]
[1]; read-out: Thrombin Ki
  Ki: < 0.5 µM
[4]; [5]
  MASP-2 vs. thrombin selectivity: −− (less than 1.0-fold)
[4]; read-out: MASP-2 Ki
  Ki: < 500 nM
[2]
  IC50: 500 to 5000 nM

## N=C(N)c1ccc(CNC(=O)[C@@H]2CCN2C(=O)[C@@H](CCCc2ccccc2)NCC(=O)O)cc1 [compound 1131]
[1]; read-out: Thrombin Ki
  Ki: < 0.5 µM
[4]; [5]
  MASP-2 vs. thrombin selectivity: −− (less than 1.0-fold)
[4]; read-out: MASP-2 Ki
  Ki: < 500 nM
[2]
  IC50: 500 to 5000 nM

## Cc1ccc(CSC(C)(C)[C@@H](N)C(=O)N2CC[C@H]2C(=O)NCc2ccc(C(=N)N)cc2)cc1 [compound 1133]
[1]; read-out: Thrombin Ki
  Ki: < 0.5 µM
[4]; [5]
  MASP-2 vs. thrombin selectivity: −− (less than 1.0-fold)
[4]; read-out: MASP-2 Ki
  Ki: < 500 nM
[2]
  IC50: 5000 to 50000 nM

## C[C@@H](C(=O)NCc1ccc2c(N)nccc2c1)N(C)C(=O)[C@H](N)CCc1cccc(C(F)(F)F)c1 [compound 1139, (R)-2-Amino-N—((S)-1-(((1-aminoisoquinolin-6-yl)methyl)amino)-1-oxopropan-2-yl)-N-methyl-4-(3-(trifluoromethyl)phenyl)butanamide Dihydrochloride]
[4]; read-out: MASP-2 Ki
  Ki: < 500 nM
[2]
  IC50: 5000 to 50000 nM
[3]
  Ki: < 10000 nM

## C[C@H](NC(=O)[C@H](N)C1Cc2ccccc2C1)C(=O)NCc1ccc2nc(N)n(C)c2c1 [compound 1171]
[1]; read-out: Thrombin Ki
  Ki: > 25 µM
[2]
  IC50: > 50000 nM

## C[C@H](NC(=O)c1cc(-c2ccccc2)c(-c2ccccc2)[nH]1)C(=O)NCc1ccc(C(=N)N)cc1 [compound 1240, (S)—N-(1-((4-Carbamimidoylbenzyl)amino)-1-oxopropan-2-yl)-4,5-diphenyl-1H-pyrrole-2-carboxamide]
[1]; Thrombin Ki (μM)
  Ki: 10 to 25 µM
[4]
  Ki: 500 to 2500 nM
[4]; [6]
  MASP-2 vs. thrombin selectivity: ** (≥5.0 to <25-fold)
[2]
  IC50: 500 to 5000 nM

## Cc1nc(N)ccc1CNC(=O)[C@H](C)NC(=O)C1=CC(c2ccccc2)C2=C(CC(C)(C)CC2=O)N1 (stereo partly drawn) [compound 1388, N-((S)-1-(((6-Amino-2-methylpyridin-3-yl)methyl)amino)-1-oxopropan-2-yl)-7,7-dimethyl-5-oxo-4-phenyl-1,4,5,6,7,8-hexahydroquinoline-2-carboxamide]
[1]; read-out: Thrombin Ki
  Ki: > 25 µM
[2]
  IC50: < 50 nM
[3]
  Ki: < 500 nM

## Cc1nc(N)ccc1CNC(=O)[C@H](C)NC(=O)[C@H]1C[C@H](Cc2ccc(-c3ccc(F)cc3C#N)cc2)CN1 [compound 1396, (2R,4S)—N—((S)-1-(((6-Amino-2-methylpyridin-3-yl)methyl)amino)-1-oxopropan-2-yl)-4-((2′-cyano-4′-fluoro-[1,1′-biphenyl]-4-yl)methyl)pyrrolidine-2-carboxamide]
[1]; read-out: Thrombin Ki
  Ki: > 25 µM
[2]
  IC50: 500 to 5000 nM
[3]
  Ki: < 500 nM

## C[C@H](NC(=O)[C@H]1C[C@H](Cc2ccccc2)CN1)C(=O)NCc1cnc2c(c1)c(Cl)cn2C [compound 1450, (2R,4S)-4-Benzyl-N-((S)-1-(((3-chloro-1-methyl-1H-pyrrolo[2,3-b]pyridin-5-yl)methyl)amino)-1-oxopropan-2-yl)pyrrolidine-2-carboxamide Dihydrochloride]
[4]; read-out: MASP-2 Ki
  Ki: < 500 nM
[4]; [6]
  MASP-2 vs. thrombin selectivity: **** (≥100-fold)
[2]
  IC50: 50 to 500 nM
[3]
  Ki: < 500 nM
